From patent US9115073B2, “1,3-diphenylpropane derivatives, preparations and uses thereof” (GENFIT, priority 2011, dated 2015)

Legend:
[1] = test system: db/db mice; experiment: Diabetes model (db/db mice): non-fasting glycemia and HbA1c; assay type: in vivo, mouse
Protocol: Diabetes Model (db/db Mice)
The male db/db mice (8 to 9 week-old) were purchased from CERJ JANVIER (Le Genest Saint Isle, France). Animal care and handling was performed according to the Declaration of Helsinki and was approved by the local ethics committees. The animals were kept under a 12 hour light/dark standard light cycle and had free access to water and food. Animals were fed standard rodent chow diet (A03 SAFE, Augy, France). Mice were randomly assigned into different treatment groups, weighed and dosed by oral gavage (10 ml/kg body weight) once daily in the morning, either with the vehicle or with the compound. The vehicle used was 0.1% Tween 80 (Polyoxyethylenesorbitan monooleate) and 1% carboxymethylcellulose in 98.9% distilled water. The entire treatment protocol took 37 days. Non-fasting glycemia was measured at 8 A.M. with the Smart Check blood glucose monitoring system, in mice that have had unrestricted access to food and water throughout the night. The blood concentration of the glycosylated hemoglobin A1c was determined using the Randox kit for Daytona automate (Randox, cat# HA 3830) according to the manufacturer's recommendations. The HbA1c result was calculated as a percentage of the total hemoglobin concentration.

[2] = target: T1, hPPARalpha (Homo sapiens, UniProt Q07869); experiment: Gal4-hPPARalpha transactivation assay in COS-7 cells (luciferase); assay type: cell-based
T1 construct: Gal4-hPPARα(LBD); Gal4 (fusion partner); expressed in transfected cells; host or cells: COS-7 (monkey kidney)
T1 sequence (Q07869 239-466 limits assumed): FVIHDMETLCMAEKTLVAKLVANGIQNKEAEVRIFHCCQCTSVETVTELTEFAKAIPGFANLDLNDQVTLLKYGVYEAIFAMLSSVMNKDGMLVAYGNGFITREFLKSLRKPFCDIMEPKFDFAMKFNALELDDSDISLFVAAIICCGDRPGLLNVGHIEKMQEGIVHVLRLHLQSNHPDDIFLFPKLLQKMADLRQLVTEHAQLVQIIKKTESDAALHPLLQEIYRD
Outline: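 COS-7 cells transiently co-transfected with Gal4-hPPAR chimeras and a Gal4(RE)_TkpGL3 luciferase reporter (1/50 ratio) were seeded at 20,000 cells/well for 4 h, then treated in 2% lipid-free synthetic serum medium (0.1% DMSO). EC50 and Hill slope came from fitted luciferase curves. Emax is relative to fenofibrate 100 μM (α), rosiglitazone 10 μM (γ) or GW501516 1 μM (δ).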

[3] = test system: brain amyloid-beta levels; experiment: Alzheimer's disease model (APPPS1 mice): brain amyloid-beta levels by ELISA; assay type: in vivo, mouse; settings: 60 days, +/- standard deviation
[4] = treated group, start of study period

COC(c1ccc(OC(F)(F)F)cc1)C1CC1c1cc(C)c(OC(C)(C)C(=O)O)c(C)c1 (single isomer, unassigned) [Cpd 14-1-2, 2-(4-(2-(methoxy(4-(trifluoromethoxy)phenyl)methyl)cyclopropyl)-2,6-dimethylphenoxy)-2-methylpropanoic acid]
Non-fasting glycemia ([1]; 3 mg per kg per day by gavage, day 30): 146 mg/dL | glycated hemoglobin (HbA1c) ([1]; 3 mg per kg per day by gavage, day 37): 4.12% | decrease of non-fasting glycemia during the study period ([1]; 3 mg per kg per day by gavage, start to day 30): 48% | change in HbA1c during the study period ([1]; 3 mg per kg per day by gavage, start to day 37): no significant change | non-fasting glycemia lower as compared to untreated controls ([1]; 3 mg per kg per day, day 30, t-test p-value <0.0001): 60% | HbA1c lower as compared to the diabetic controls ([1]; 3 mg per kg per day, day 37, t-test p-value <0.01): 28% | Non-fasting glycemia [1, 4]: 258 mg/dL | glycated hemoglobin (HbA1c) [1, 4]: 4.16% | EC50 ([2]; Gal4-hPPARα(LBD) transactivation): 12 nM | Gal4-hPPARα(LBD) TOP (% ref) ([2]; maximal relative activation vs reference, listed as cpd 14-1-2): 46 % ref | amyloid-beta peptide Aβ 1-38, mean reduction from untreated APPPS1 mice ([3]; 1 mpk per day): 76 % +/− 16 % (**) | amyloid-beta peptide Aβ 1-40, mean reduction from untreated APPPS1 mice ([3]; 1 mpk per day): 55 % +/− 17 % (**) | amyloid-beta peptide Aβ 1-42, mean reduction from untreated APPPS1 mice ([3]; 1 mpk per day): 56 % +/− 19 % (**) | amyloid-beta peptide Aβ 1-38, mean reduction from untreated APPPS1 mice ([3]; 10 mpk per day): 97 % +/− 3 % (**) | amyloid-beta peptide Aβ 1-40, mean reduction from untreated APPPS1 mice ([3]; 10 mpk per day): 72 % +/− 14 % (**) | amyloid-beta peptide Aβ 1-42, mean reduction from untreated APPPS1 mice ([3]; 10 mpk per day): 74 % +/− 14 % (**)
